The source made the active and inactive calls. No cut-off for these calls is given here.
What was measured:
[1] = Toxicity in KM mouse assessed as survival rate at 5 to 80 mg/kg, sc measured for 24 hrs; assay type: organism-based; settings: in vivo, dose 5-80 mg/kg
Staphylococcus aureus [2] = assay: Antibacterial activity against methicillin-resistant Staphylococcus aureus clinical isolate M-4 upto 128 ug/ml incubated for 16 to 18 hrs in presence of peptidoglycan by broth dilution method; assay type: functional, organism-based; settings: dose <= 128.0 µg/ml, time 16-18 hrs
Staphylococcus aureus [3] = assay: Disruption of cell membrane in methicillin-resistant Staphylococcus aureus clinical isolate M-4 assessed as fold increase in fluorescence intensity at 32 ug/ml measured after 20 mins by DiSC3(5) dye based analysis relative to control; assay type: functional; settings: dose 32 µg/ml
Staphylococcus aureus [4] = assay: Induction of resistance development in Staphylococcus aureus ATCC 29213 at MIC measured after 20 passages; assay type: functional
Staphylococcus aureus [5] = assay: Disruption of cell membrane in methicillin-resistant Staphylococcus aureus clinical isolate M-4 assessed as increase in red fluorescence at 32 ug/ml incubated for 2 hrs by SYTO9/PI staining based flow cytometry relative to control; assay type: functional; settings: dose 32 µg/ml
Staphylococcus aureus [6] = assay: Antibacterial activity against methicillin-resistant Staphylococcus aureus clinical isolate M-4 infected in KM mouse assessed as survival rate of bacteria at 10 mg/kg, sc measured after 24 hrs relative to control; assay type: functional
Escherichia coli = assay: Antibacterial activity against Escherichia coli ATCC 25922 incubated for 16 to 18 hrs CLSI based by microbroth dilution assay; assay type: functional; settings: time 16-18 hrs
Staphylococcus aureus [7] = assay: Disruption of cell membrane in methicillin-resistant Staphylococcus aureus clinical isolate M-4 assessed as decrease in blue fluorescence at 4 ug/ml incubated for 4 hrs by DAPI/PI staining based laser confocal microscopy; assay type: functional, organism-based; settings: dose 4.0 µg/ml
Staphylococcus aureus [8] = assay: Bactericidal activity against Staphylococcus aureus ATCC 29213 at 4 to 8 times MIC by time kill assay; assay type: functional, organism-based; settings: TDE = time-dependent effect
[9] = Toxicity in KM mouse infected with methicillin-resistant Staphylococcus aureus clinical isolate M-4 assessed as histopathological abnormality in kidneys at 5 to 10 mg/kg, sc measured after 24 hrs by H and E staining based analysis; assay type: organism-based; settings: in vivo, dose 5-10 mg/kg
Staphylococcus aureus [10] = assay: Antibacterial activity against methicillin-resistant Staphylococcus aureus clinical isolate M-4 infected in KM mouse assessed as survival rate of bacteria at 5 mg/kg, sc measured after 24 hrs relative to control; assay type: functional
[11] = Selectivity index, ratio of HC50 for sheep erythrocytes to MIC for Staphylococcus aureus ATCC 29213; assay type: toxicity; settings: read-out: Selectivity Index
Staphylococcus aureus [12] = assay: Disruption of cell membrane in methicillin-resistant Staphylococcus aureus clinical isolate M-4 assessed as DNA leakage at 1 to 8 times MIC incubated for 4 hrs by microspectrophotometry; assay type: functional, organism-based
[13] = Stability in sheep plasma at MBC measured for 6 hrs; assay type: ADME, cell-free, Ovis aries
Staphylococcus aureus [14] = assay: Bactericidal activity against Staphylococcus aureus ATCC 29213 at 4 times MIC incubated for 2 hrs by time kill assay relative to control; assay type: functional
[15] = Toxicity in KM mouse assessed as histological abnormality in heart at 20 mg/kg, sc measured after 24 hrs by H and E staining based analysis; assay type: organism-based; settings: in vivo
Staphylococcus aureus [16] = assay: Antibacterial activity against methicillin-resistant Staphylococcus aureus clinical isolate M-5 incubated for 16 to 18 hrs CLSI based by microbroth dilution assay; assay type: functional; settings: time 16-18 hrs
[17] = Toxicity in KM mouse infected with methicillin-resistant Staphylococcus aureus clinical isolate M-4 assessed as histopathological abnormality in lungs at 5 to 10 mg/kg, sc measured after 24 hrs by H and E staining based analysis; assay type: organism-based; settings: in vivo, dose 5-10 mg/kg
Staphylococcus aureus [18] = assay: Bactericidal activity against Staphylococcus aureus ATCC 29213 by time kill assay; assay type: functional, organism-based
[19] = Toxicity in KM mouse assessed as histological abnormality in liver at 20 mg/kg, sc measured after 24 hrs by H and E staining based analysis; assay type: organism-based; settings: in vivo
[20] = Toxicity in KM mouse assessed as change in mental health at 5 to 80 mg/kg, sc measured for 24 hrs; assay type: organism-based; settings: in vivo, dose 5-80 mg/kg
Staphylococcus aureus [21] = assay: Antibacterial activity against methicillin-resistant Staphylococcus aureus clinical isolate M-4 infected in KM mouse assessed as decrease in abnormality in skin area at 10 mg/kg, sc measured after 24 hrs by H and E staining based analysis; assay type: functional, organism-based
[22] = Cytotoxicity against human L02 cells assessed as cell survival at 16 ug/ml by MTT assay relative to control; assay type: toxicity, cell-based; settings: at 16 µg/mL, read-out: Survival
Staphylococcus aureus [23] = assay: Antibacterial activity against methicillin-resistant Staphylococcus aureus clinical isolate M-1 incubated for 16 to 18 hrs CLSI based by microbroth dilution assay; assay type: functional; settings: time 16-18 hrs
Staphylococcus aureus [24] = assay: Bactericidal activity against methicillin-resistant Staphylococcus aureus clinical isolate M-4 at 4 to 8 times MIC by time kill assay; assay type: functional, organism-based; settings: TDE = time-dependent effect
[25] = Toxicity in KM mouse assessed as change in platelet count at 20 mg/kg, sc measured after 24 hrs; assay type: organism-based; settings: in vivo
[26] = Toxicity in KM mouse assessed as change in albumin level at 20 mg/kg, sc measured after 24 hrs; assay type: organism-based; settings: in vivo
[27] = Toxicity in KM mouse infected with methicillin-resistant Staphylococcus aureus clinical isolate M-4 assessed as histopathological abnormality in spleen at 5 to 10 mg/kg, sc measured after 24 hrs by H and E staining based analysis; assay type: organism-based; settings: in vivo, dose 5-10 mg/kg
Staphylococcus aureus [28] = assay: Bactericidal activity against methicillin-resistant Staphylococcus aureus clinical isolate M-4 by time kill assay; assay type: functional, organism-based
Staphylococcus aureus [29] = assay: Disruption of cell membrane in methicillin-resistant Staphylococcus aureus clinical isolate M-4 assessed as increase in red fluorescence at 4 ug/ml incubated for 4 hrs by DAPI/PI staining based laser confocal microscopy; assay type: functional, organism-based; settings: dose 4.0 µg/ml
Staphylococcus aureus [30] = assay: Antibacterial activity against methicillin-resistant Staphylococcus aureus clinical isolate M-8 incubated for 16 to 18 hrs CLSI based by microbroth dilution assay; assay type: functional; settings: time 16-18 hrs
Staphylococcus aureus [31] = assay: Antibacterial activity against methicillin-resistant Staphylococcus aureus clinical isolate M-4 infected in KM mouse assessed as decrease in erythema in subcutaneous tissue at 5 to 10 mg/kg, sc measured after 24 hrs by H and E staining based analysis; assay type: functional, organism-based; settings: dose 5-10 mg/kg
[32] = Toxicity in KM mouse infected with methicillin-resistant Staphylococcus aureus clinical isolate M-4 assessed as histopathological abnormality in liver at 5 to 10 mg/kg, sc measured after 24 hrs by H and E staining based analysis; assay type: organism-based; settings: in vivo, dose 5-10 mg/kg
Staphylococcus aureus [33] = assay: Antibacterial activity against methicillin-resistant Staphylococcus aureus clinical isolate M-4 upto 128 ug/ml incubated for 16 to 18 hrs in presence of phosphatidylethanolamine by broth dilution method; assay type: functional, organism-based; settings: dose <= 128.0 µg/ml, time 16-18 hrs
Staphylococcus aureus [34] = assay: Disruption of cell membrane in methicillin-resistant Staphylococcus aureus clinical isolate M-4 assessed as fold increase in intracellular ROS level at 32 ug/ml incubated for 1 hr by DCFH-DA dye based analysis relative to control; assay type: functional; settings: dose 32 µg/ml
[35] = Toxicity in KM mouse assessed as red swollen appearance of skin at administration site at 5 to 20 mg/kg, sc measured for 24 hrs; assay type: organism-based; settings: in vivo, dose 5-20 mg/kg
Staphylococcus aureus [36] = assay: Antibacterial activity against methicillin-resistant Staphylococcus aureus clinical isolate M-2 incubated for 16 to 18 hrs CLSI based by microbroth dilution assay; assay type: functional; settings: time 16-18 hrs
[37] = Toxicity in KM mouse assessed as histological abnormality in kidney at 20 mg/kg, sc measured after 24 hrs by H and E staining based analysis; assay type: organism-based; settings: in vivo

In the case of CCCCCNC(=O)C[N+](C)(C)CCCCn1c(-c2ccc(N(C)C)cc2)nc2c3ccccc3c3ccccc3c21.[Br-], the survival at 24 h [1] was 100%, the Activity (Staphylococcus aureus [2]) was “Active” and the “fold change (FC)” value (Staphylococcus aureus [3]) was ~5. For the same compound, the Activity (Staphylococcus aureus [4]) was “inactive”, the Activity (Staphylococcus aureus [5]) was 99.34% and the survival at 10 mg/kg (Staphylococcus aureus [6]) was 0.01%. The MIC (Escherichia coli) was 32 µg/mL, the Activity (Staphylococcus aureus [7]) was “Active” and the Activity (Staphylococcus aureus [8]) was “Tde”. For the same compound, the Activity [9] was “Non-Toxic”, the survival at 5 mg/kg (Staphylococcus aureus [10]) was 0.42% and the selectivity ratio [11] was 859. The Activity (Staphylococcus aureus [12]) was “Active”, the Stability [13] was “Stable” and the Activity (Staphylococcus aureus [14]) was 100%. For the same compound, the Activity [15] was “Non-Toxic”, the MIC (Staphylococcus aureus [16]) was 2 µg/mL and the Activity [17] was “Non-Toxic”. For the same compound, the Activity (Staphylococcus aureus [18]) was “Dose-Dependent Effect”, the Activity [19] was “Non-Toxic” and the Activity [20] was “Non-Toxic”. The Activity (Staphylococcus aureus [21]) was “Active”, the viability at 16 ug/ml [22] was 100% and the MIC (Staphylococcus aureus [23]) was 2 µg/mL. For the same compound, the Activity (Staphylococcus aureus [24]) was “Tde”, the Activity [25] was “Non-Toxic” and the Activity [26] was “Non-Toxic”. For the same compound, the Activity [27] was “Non-Toxic”, the Activity (Staphylococcus aureus [28]) was “Dose-Dependent Effect” and the Activity (Staphylococcus aureus [29]) was “Active”. For the same compound, the MIC (Staphylococcus aureus [30]) was 0.5 µg/mL, the Activity (Staphylococcus aureus [31]) was “Active” and the Activity [32] was “Non-Toxic”. The Activity (Staphylococcus aureus [33]) was “Active”, the “fold change (FC)” value (Staphylococcus aureus [34]) was ~3 and the Activity [35] was “Non-Toxic”. The MIC (Staphylococcus aureus [36]) was 1 µg/mL and the Activity [37] was “Non-Toxic”.
